Here are results for five compounds from US12241094B2, “Phenazine degrading agents and related compositions, methods and systems for interfering with viability of bacteria” (priority 2016, dated 2025).

In general, pKa refers to the negative logarithm of the acid dissociation constant.

Like-named read-outs stand apart in the source and are kept apart here. Marks after values point to notes of the source that are not given here.

The test system of data set [1] is Pa PA14 biofilm transcriptome. The data set is described as follows: RNASeq transcriptome of biofilm cultures. The conditions noted are these: 5 h. The format is cell-based, P. aeruginosa. How it is done:
Because 1-OH-PHZ induces iron starvation in A. fumigatus (Briard et al. (2015) Scientific Reports. 2015; 5), it was speculated that the abrogation of biofilm development in P. aeruginosa grown in the presence of either PodA or 1-OH-PHZox may be mediated by a response to Fe-limitation. To test this idea, changes to the transcriptome of Pa PA14 by RNASeq were assessed. After 5 h of incubation in the presence of PodA (1 μM), 1-OH-PHZ (200 μM) or PYO (200 μM), RNA was prepared from 1 ml of biofilm cultures (250 μl pooled from 4 static biofilm chambers) for analysis on an Illumina HiSeq 2500 sequencer at the Millard and Muriel Jacobs Genetics and Genomics Laboratory, as previously described (Babin et al. (2016) Proc Natl Acad Sci USA. 113(5):E597-E605; Kreamer et al. (2015) M Bio. 2015; 6(2):e02549. Epub 2015/02/26). This experiment was designed to identify genes that were likely to be specifically affected by PodA's transformation of PYO to 1-OH-PHZ under a condition that inhibited biofilm formation (FIG. 20A). As a reference for genes responsive to iron availability, these transcriptomes were compared to those previously found to respond to Fe(II) shock (Kreamer et al. (2015) M Bio. 2015; 6(2):e02549. Epub 2015/02/26).

Data set [2] has as its system P. aeruginosa biofilm. Kind of data set: Optical density of P. aeruginosa biofilm. The format is cell-based. The conditions noted are these: PodA vs inactive E154A; 1-OH-PHZ vs 1% DMSO.
In data set [3] the test system is PA14. The data set is described as follows: Redox cycles over 7 days and support of survival (Table 1). In kind it is cell-based, P. aeruginosa.
Data set [4] deals with PA14. The data set is described as follows: Reduction of redox-active compounds by PA14 (Table 1). In kind it is cell-based, P. aeruginosa.
For data set [5] the following is noted: Kidani 1958; cited from earlier work.
The test system of data set [6] is P. aeruginosa biofilm. Kind of data set: Microcolony number and size in 5 hour biofilms on succinate minimal medium. The format is cell-based. The conditions noted are these: 100 μM 1-OHPHZ or 0.5 μg mL-1 PodA. The source says:
FIGS. 24A-C show charts and images illustrating results of exemplary experiments showing that PodA and 1-OH-PHZ inhibit the early stages of P. aeruginosa biofilm formation on succinate minimal medium. […] Numbers are averages and SD from 8 biological replicates.

For data set [7] the following is noted: oxidized form, values from references a, c, d; cited from earlier work.
Data set [8] relates to P. aeruginosa planktonic culture. Kind of data set: Phenazines in planktonic P. aeruginosa cultures (HPLC). In kind it is cell-based. To be noted: 24 hours. The source says: Product was cut with DpnI to remove WT vector, phosphorylated with T4 polynucleotide kinase, and ligated to generate a circular mutant protein expression construct. For D72N and Y156F mutants, DNA fragments encoding the mutation were synthesized (Integrated DNA Technologies) and cloned into pET-20b(+) as for the wild type sequence. Enzymes for cloning were purchased from New England Biolabs. Constructs were transferred to E. coli BL21(DE3) for expression. All mutations were confirmed by Sanger sequencing (Laragen and Retrogen). When necessary, 100 μg mL^−1 carbenicillin was included in all growth media to maintain selection for the plasmid. To measure the effect of PodA30-162 on phenazine production in planktonically grown P. aeruginosa, cultures were grown overnight in 5 mL volumes of tryptic soy broth (TSB) or succinate minimal medium (arginine medium recipe from Glasser et al., 2014 with 40 mM sodium succinate in place of arginine) (3) in the presence 1 μg mL^−1 PodA30-162. Cells were removed by centrifugation and supernatants were analyzed by HPLC as previously described (9). See below for a description of biofilm growth of P. aeruginosa PA14. To induce protein expression, an overnight culture was inoculated 1/1000 in Terrific Broth (BD Difco). Cultures were grown in baffled Erlenmeyer flasks (1 L culture per 3 L flask) at 37° C. with 150 rpm agitation in a shaking incubator (Innova 44 shaking incubator, New Brunswick). After 3-4 hours, the temperature was changed to 16° C. and cultures were induced with 50 μM (final concentration) IPTG and left to incubate overnight. Cells were then pelleted by centrifugation, flash frozen in liquid N2, and stored at −80° C. for up to 1 month before protein purification.

Data set [9] concerns Pa PA14 biofilm. The data set is described as follows: Biofilm biomass by DAPI intensity (Example 7). The format is cell-based, P. aeruginosa. As for the experimental part: In this example, to check for an effect of PodA or 1-OH-PHZ on biofilm development, Pa PA14 was grown in 8-well chambered microscope slides designed for biofilm imaging, as previously reported (Das et al. (2015) Sci Rep. 5:8398). Overnight cultures of Pa PA14 were diluted to a starting optical density of 0.25 and grown directly on the slides (volume of 250 μl per chamber). After 5 h incubation at 37° C., planktonic cells were rinsed from the slide and remaining cells were stained with DAPI. Biofilm biomass was quantified by DAPI intensity on a Leica confocal microscope, with LAS X software. Pa PA14 incubated in the presence of 1 μM PodA or 100 μM 1-OHPHZox had ˜50% the biofilm biomass of Pa PA14 alone (FIG. 20A).

The nature of data set [10]: Redox potential E0' (vs. NHE) of redox-active compounds. In kind it is physicochemical. The conditions noted are these: measured in aqueous solution at pH 7 in this study (footnote b).
The conditions of data set [11]: PYO's hydroxyl group; cited from earlier work.
For data set [12], the system named is E. coli DH5α. The conditions noted are these: 100 μM PYO vs absence of PYO; cited from earlier work.
Data set [13] concerns S. oneidensis MR1. The conditions noted are these: 100 μM PYO vs absence of PYO; cited from earlier work.
Data set [14] deals with S. aureus MN8. The conditions noted are these: 100 μM PYO vs absence of PYO; cited from earlier work.
The test system of data set [15] is P. aeruginosa Δphz. The conditions noted are these: 25 μM PYO; images from Ramos et al., 2010; cited from earlier work.
Data set [16] has as its system Pa PA14 biofilms. Kind of data set: Tobramycin tolerance of Pa PA14 biofilms. The format is cell-based, P. aeruginosa. How it is done: In varying the amount of added 1-OH-PHZox, it was observed a dose-dependent response: the greater the [1-OHPHZox], the greater the biofilm inhibition, yet, under these conditions, saturating at 200 μM (FIG. 20B). To set the stage for flow-cell experiments to explore PodA and 1-OH-PHZ effects on biofilm inhibition and biofilm dissolution, the time course for biofilm development was mapped for Pa PA14 constitutively expressing YFP under constant flow in a minimal medium (FIG. 20C) as previously described (Wang et al. (2011) J Bacteriol. 193(14):3606-17). In addition, an appropriate initial tobramycin concentration to use in Pa PA14 biofilm experiments was also identified to test the hypothesis that PodA or 1-OH-PHZ can sensitize biofilms to antibiotics: Pa PA14 biofilms tolerate 20 μg/ml, 10× the MIC for tobramycin for planktonic cultures, similar to what has been reported for biofilms of Pa PAO1 (Bjarnsholt et al. (2005) Microbiol-Sgm. 2005; 151:373-83).

Consider `Oc1cccc2nc3ccccc3nc12` [1-OH-PHZ, 1-Hydroxyphenazine], for which the “upregulation of genes in iron responsive pathways” value in data set [1] (200 μM) is given as 2-10 fold. Also, in [1], the “expression of small gene cluster incl. QapR regulon” value is “upregulated modestly”. The “optical density of biofilm” value in data set [2] is “not significantly different”. Also, in [3], the “# of Redox cycles over 7 days” value turned out to be 14 and the “Support survival?” value is “Yes”. In addition, the “Reduction by PA14?” value in [4] was “Yes”. Also, the “log of the equilibrium constant βmlh of binding copper” value in data set [5] is 8.68. The microcolony diameter result in [6] is given as “does decrease”. The “number of microcolonies formed” value in data set [6] (vs inactive E154A) is recorded as “does not significantly affect”. Also, in data set [7], the “E^0, (vs. NHE)” value was −174^a mV. Moreover, the “production of PYO” value in data set [8] (minimal medium with succinate) was “negative impact”. Besides, the phenazine production result in data set [8] (tryptic soy broth) is “changes to the concentrations of all four phenazines”. The “biofilm biomass relative to Pa PA14 alone” value in data set [9] (1 μM PodA or 100 μM 1-OHPHZox, 5 h at 37° C) was ~50%. For the same compound, the “biofilm formation compared to untreated control” value in data set [9] (PodA 1 μM, 1-OH-PHZ 100 μM, total DAPI staining) was “inhibit biofilm formation”. For the same compound, in data set [9] (dose-dependent response), the “concentration at which biofilm inhibition saturates” value came to 200 µM.

As to `O=C(O)Cc1cc(O)ccc1O` [Homogentisic acid (HMA), Homogentisic acid], in [10], the “E^0, (vs. NHE)” value is reported as “+306^b mV”. Moreover, in [3], the “# of Redox cycles over 7 days” value was “No cycle” and the “Support survival?” value was “No”.

As to `CN(C)c1ccc2nc3ccc(=[N+](C)C)cc-3sc2c1` [Methylene blue (MB), Methylene blue], the “E^0, (vs. NHE)” value is 0 mV in data set [10] and “+11 mV” in data set [7]. Moreover, the “# of Redox cycles over 7 days” value in [3] is recorded as 3. In addition, in data set [3], the “Support survival?” value is listed as “No”. Further, the “Reduction by PA14?” value in [4] is “Yes”.

`Cn1c2cccc(=O)c-2nc2ccccc21` [PYO, Pyocyanin]: the pKa in [11] is ~5. Moreover, the “log(2) changes relative to untreated control, metal scavenging and starvation response genes (FIG. 21A)” value in data set [1] (PodA 1 μM, 1-OH-PHZ 200 μM, PYO 200 μM) was ~0 log(2). The “# of Redox cycles over 7 days” value in data set [3] is 31. In addition, the “Support survival?” value in [3] was “Yes”. In [4], the “Reduction by PA14?” value is “Yes”. Also, the colony growth result in data set [12], in data set [13] and in data set [14] was “decreased colony growth” each time. Further, the “E^0, (vs. NHE)” value in data set [7] is −40^a mV. In data set [15], the “biofilm production of Δphz” value is recorded as “restored”.

For `NC[C@H]1O[C@H](O[C@H]2[C@H](O)[C@@H](O[C@H]3O[C@H](CO)[C@@H](O)[C@H](N)[C@H]3O)[C@H](N)C[C@@H]2N)[C@H](N)C[C@@H]1O` [tobramycin], in data set [16], the “tobramycin concentration tolerated by biofilms” value amounted to 20 µg/mL and the “tolerated concentration relative to MIC for planktonic cultures” value is 10 × the MIC.
